Results taken from publication PMC9611726, “Synthesis, Characterization and Biological Investigation of New N-Modified Spinorphin Analogs” (Pharmaceuticals, 2022).
Marks after values point to notes of the source that are not given here. Where a SMILES comes first, the peptide text is derived from it. [ ]: non-standard residue; d: D form. The star is where a group is joined. X1 = CCN(CC)c1ccc2c(c1)Oc1cc(N(CC)CC)ccc1C2c1ccccc1C(=O)*; Ac6c = NC1(C(=O)O)CCCCC1; Ac5c = NC1(C(=O)O)CCCC1

Tests used:
tonic seizures (MES) = assay: Maximal electroshock test (MES test); assay type: in vivo, mice; conditions: i.c.v.; for % Mortality / % Protection / No. of Animals Protected/No. of Animals Tested: male ICR mice; for No. of Animals Protected/No. of Animals Tested: test 10 min after administration
Source text: (§1) The screeing test for anticonvulsant activity of drugs was perfomed on male ICR mice (25–30 g), purchased by the vivarium of the Institute of Neurobiology, BAS. They were kept in standard laboratory conditions and cages in groups of 5–6 per cage with ad libitum access to commercial pellets for rodents and water. After a week of adaptation, all mice were allocated in groups of 6 according to their treatment and test procedure. Each mouse was used only for one experiment. All procedures were performed in agreement with the European Communities Council Directive 2010/63/EU. The experimental design was approved by the Bulgarian Food Safety Agency (#300/№ 5888–0183).
(§2) […] The test for anticonvulsant activity was carried out 10 min after drug administration.
The MES test was carried out with the device used for the 6-Hz test according to the protocol reported in [38, 39]. The criterion for protection was accepted when the mouse […].
(§3) For the 6-Hz test and MES a Fisher’s exact test (two-tailed) was applied. A one-way ANOVA of variance was used for the ivPTZ test and a Dunnet post hoc test in case of significance. Statistical significance was accepted at p ≤ 0.05 vs. control (Fisher’s exact test). The calculations were carried out with SigmaPlot program (11.0 version) and Graph Pad Prizm (Version 7.04) (GraphPad Software, San Diego, CA, USA).

[1] = Acid-base constants (pKa) and isoelectric point (pI) by fluorimetry, confirmed by UV-Vis; assay type: physicochemical; conditions: for pKa2 / pKa1: fluorimetric, inflection of I/pH curve, confirmed by UV-Vis, average values from repeatable results; for pKa2: pH 1 to 12, rhodamine part (λex 560 nm); for pKa1: pH 1 to 12, tryptophan emission (λex 275 nm); for pI: isoelectric point calculated from the protolytic constants
Protocol: When studying the fluorescence properties, the emission spectra were recorded upon excitation at two wavelengths: λ^ex = 275 nm where tryptophan/tyrosine fluoresces, and at λ^ex = 560 nm where excitation of the rhodamine moiety is possible (Figure 5 and Figure 6). […] With both amino acids present in the indicated complex mixture, the fluorescence in the 300–400 nm range is more likely to originate from the indole group of the tryptophan residue, which is known to emit at ~350 nm at an excitation wavelength of 280 nm. Moreover, spectra were recorded at different pHs of the medium to determine the study compounds’ acid constants and isoelectric points. All compounds show similar behavior of fluorescence properties with minimal difference in wavelength where the compound absorbs in the visible region (1–2 nm). A strong decrease in the intensity of the emission maximum at λ^em = 585 nm is observed with an increase in the pH of the medium, which is due to the structural changes associated with the closure of the spirolactam ring at rhodamine. pH also affects the fluorescence emission intensity of the tryptophan/tyrosine spectral line. […] The obtained emission spectra at different pHs helped us to determine the acidity constants of the obtained compounds. pK values were obtained by selecting the inflection points of the I/pH curve at two wavelengths: 275 nm, where tryptophan emits, and 575 nm for the rhodamine part, respectively (Figure 5 and Figure 6, inserted graphs). At these points the concentrations of conjugated acid and base are equal, i.e., [HRh-S] = [Rh-S-], and according to the known relationship […] at this point pKa = рН. Equations (1) and (2) given in the experimental part were also used to calculate the acid constants to confirm the values. […] The proven higher values of the constants given in [24] are due to the influence of the –OH group of tyrosine, located near the spirolactam ring of rhodamine and leading to its more effortless opening. […] Based on the obtained values of the protolytic constants, the isoelectric points were calculated where the compounds would show zero charge and reduced solubility (Table 1). […] Stokes shift, showing the differences between the structure of the fluorophore in the ground S0 state and in the first excited state S1, was also determined as an essential feature for the rhodamine peptide derivatives (Figure 5, Table 2). The Stokes shift for all compounds at the rhodamine moiety is ~859 cm^−1, which is consistent with the rhodamine derivatives known in the literature.
Acid base constants and isoelectric points were determined fluorimetrically and confirmed by UV–Vis analyses. Absorption and emission spectra were recorded on a series of solutions with the same concentration of the peptide derivatives at different pHs (from 1 to 12). The assay data (intensity/absorbance versus pH) were processed with Origin8Pro mathematical software. The pK value were determined using the following equations:log [(Amax − A)/(A − Amin)] = pH − pKa(1) log [(IF max − IF)/(IF − IF min)] = pH – pKa(2) where the minimum (Amin) and the maximum (Amax) absorbances are at 275 nm and 557 nm, respectively, A is the absorbance at the given pH value; Fmax and Fmin are the maximum and minimum fluorescence emission intensity at 356 and 585 nm, respectively, F is the fluorescence intensity at the given pH value.

[2] = tested on: 6-Hz-induced psychomotor seizures; assay: Six Hz psychomotor seizure test; assay type: in vivo, mice; conditions: i.c.v.; for % Protection / No. of Animals Protected/No. of Animals Tested: 6 Hz test, male ICR mice, test 10 min after administration; for anticonvulsant effect against 6-Hz-induced psychomotor seizures (in words): highest dose of 20 μg
Source text: as §1, §2
The test for assessment drug effect against psychomotor seizures was performed via a constant current device and corneal electrodes as previously. The criterion for assessing the anticonvulsant activity was restoration of normal posture 10 s after stimulation. Controls (mice treated with vehicle) were unable to resume normal behavior and stimulation trigger different stereotypic responses and automatism such as sniffing, vibrissae, locomotion, Straub tail, or clonic seizures.
as §3

[3] = Antioxidant activity, DPPH radical scavenging; conditions: 77 μL sample + 3 mL DPPH, 30 min in the dark, 517 nm, standard BHT
Protocol: The determination of the antioxidant activity of the new peptide derivatives was carried out by inserting 77 μL of hL extract into a test tube, then adding 3 mL of DPPH solution, homogenizing, and incubating for 30 min in a dark room. The measurement of antioxidant activity was performed by a spectrophotometer with a wavelength of 517 nm. The treatment was carried out three times. The determination of activity for the standard solution was conducted by first diluting 0.025 BHT (butylated hydroxytoluene) with 1 mL of methanol. Then 3 mL of DPPH was added to 77 μL of BHT solution in a test tube, homogenized, and incubated for 30 min in a dark room. The treatment was repeated three times. For the blank, only 77 μL of methanol plus 3 mL of DPPH were used, then homogenized and incubated for 30 min in a dark room. According to Millauskas et al. (2004), the free radical scavenging activity of the sample was calculated by the formula:(3) DPPH radical concentration (%)=Acontrol− Asample/Acontrol × 100 where Acontrol is the absorbance value of the control reaction and Asample is the absorbance value in the presence of the tested extracts sample.

[4] = mice, p ≤ 0.05 compared to control

| Compound | % Mortality (tonic seizures (MES); MES test, dose 5 µg/10 µL) [%] | % Protection (tonic seizures (MES); MES test, dose 5 µg/10 µL) | No. of Animals Protected/No. of Animals Tested (tonic seizures (MES); MES test, dose 5 µg/10 µL) | % Mortality (tonic seizures (MES); MES test, dose 10 µg/10 µL) [%] | % Protection (tonic seizures (MES); MES test, dose 10 µg/10 µL) | No. of Animals Protected/No. of Animals Tested (tonic seizures (MES); MES test, dose 10 µg/10 µL) | % Mortality (tonic seizures (MES); MES test, dose 20 µg/10 µL) [%] | % Protection (tonic seizures (MES); MES test, dose 20 µg/10 µL) | No. of Animals Protected/No. of Animals Tested (tonic seizures (MES); MES test, dose 20 µg/10 µL) | pKa2 [1] | pKa1 [1] | pI [1] | % Protection ([2]; dose 5 µg/10 µL) | No. of Animals Protected/No. of Animals Tested ([2]; dose 5 µg/10 µL) | % Protection ([2]; dose 10 µg/10 µL) | No. of Animals Protected/No. of Animals Tested ([2]; dose 10 µg/10 µL) | % Protection ([2]; dose 20 µg/10 µL) | No. of Animals Protected/No. of Animals Tested ([2]; dose 20 µg/10 µL) | anticonvulsant effect against 6-Hz-induced psychomotor seizures (in words) [2, 4] | antioxidant activity compared to the positive control (in words) [3] | further results |
| --- | --- | --- | --- | --- | --- | --- | --- | --- | --- | --- | --- | --- | --- | --- | --- | --- | --- | --- | --- | --- | --- |
| CCN(CC)c1ccc2c(c1)Oc1cc(N(CC)CC)ccc1C2c1ccccc1C(=O)N[C@@H](CC(C)C)C(=O)N[C@H](C(=O)N[C@H](C(=O)N[C@@H](Cc1ccc(O)cc1)C(=O)NC1(C(=O)N[C@@H](Cc2c[nH]c3ccccc23)C(=O)N[C@H](C(N)=O)[C@@H](C)O)CCCCC1)C(C)C)C(C)C [Rh-S6, rhodamineB-Leu-Val-Val-Tyr-Ac6c-Trp-Thr-NH2] (X1-LVVY[Ac6c]WT-NH2) | 0 | 100 * % | 6/6 | 0 | 100 * % | 6/6 | 0 | 100 * % | 6/6 | 4.94 | 6.35 | 5.65 | 33% | 2/6 | 50% | 3/6 | 67 * % | 4/6 | significant anticonvulsant effect | similar | mortality in the MES test (in words) (tonic seizures (MES); mice, at the three doses studied (5, 10 and 20 μg)): no mortality; protection in the MES test (tonic seizures (MES); mice, at the three doses studied (5, 10 and 20 μg), p ≤ 0.05 compared to control): 100% |
| CCN(CC)c1ccc2c(c1)Oc1cc(N(CC)CC)ccc1C2c1ccccc1C(=O)N[C@@H](CC(C)C)C(=O)N[C@H](C(=O)N[C@H](C(=O)N[C@@H](Cc1ccc(O)cc1)C(=O)N1CCC[C@H]1C(=O)N[C@@H](Cc1c[nH]c2ccccc12)C(=O)N[C@H](C(N)=O)[C@@H](C)O)C(C)C)C(C)C [Rh-S, rhodamineB-Leu-Val-Val-Tyr-Pro-Trp-Thr-NH2] (X1-LVVYPWT-NH2) | 50 | 50% | 3/6 | 0 | 50% | 3/6 | 33 | 67 * % | 4/6 | 4.56 | 7.09 | 5.82 | 67 * % | 4/6 | 100 * % | 6/6 | 67 * % | 4/6 | – | similar | protection against 6-Hz-induced psychomotor seizures (in words) ([2]; mice, at the three doses used (5, 10, and 20 μg), p ≤ 0.05 compared to control): significant protection |
| CCN(CC)c1ccc2c(c1)Oc1cc(N(CC)CC)ccc1C2c1ccccc1C(=O)N[C@@H](CC(C)C)C(=O)N[C@H](C(=O)N[C@H](C(=O)N[C@@H](Cc1ccc(O)cc1)C(=O)NC1(C(=O)N[C@@H](Cc2c[nH]c3ccccc23)C(=O)N[C@H](C(N)=O)[C@@H](C)O)CCCC1)C(C)C)C(C)C [Rh-S5, rhodamineB-Leu-Val-Val-Tyr-Ac5c-Trp-Thr-NH2] (X1-LVVY[Ac5c]WT-NH2) | 17 | 41% | – | 17 | 42% | 5/12 | 17 | 67 * % | 4/6 | 5.36 | 5.11 | 5.23 | 17% | 1/6 | 33% | 2/6 | 83 * % | 5/6 | significant anticonvulsant effect | weak | protective potency against tonic seizures (in words) (tonic seizures (MES); MES test, mice, dose of 20 µg, p ≤ 0.05 compared to control): stronger protective potency compared to the heptapeptide Rh-S |
